Reference: PMC9747611 (Hypertension Research, 2022)

Experiment: Safety: adverse events, ECG, vital signs
Assay type: in vivo, human
Protocol: Plasma PD measures included concentrations of aldosterone, 18-hydroxycorticosterone, corticosterone, 11-deoxycorticosterone, cortisol (free and total), 11-deoxycortisol, ACTH, sodium, chloride, and potassium. AUCs were calculated using a noncompartmental analysis and the linear trapezoidal/linear interpolation method. Urine PD measures included concentrations of aldosterone, cortisol (free and total), tetrahydroaldosterone, sodium, chloride, potassium, creatinine, and phosphorus. Other PD measures were seated, orthostatic, and positional changes in vital signs, as well as changes in body weight and BMI. Safety assessments involved adverse events, physical examinations, ECGs, orthostatic vital signs, and clinical laboratory evaluations.
Subjects who received placebo were pooled into 2 treatment groups: placebo with low-salt diet and placebo with normal-salt diet. Descriptive statistics were calculated for PK, PD, and safety measures. […] Data are presented as change from baseline in least squares mean (90% CI) AUC0-12h of plasma aldosterone on days 1 and 10. The results of the exploratory dose proportionality power model were assessed using the Smith criteria (0.9031, 1.0969) and the less stringent Hummel criteria (0.6990, 1.3010).

[1] = 0.5 mg once daily 10 days, normal-salt diet, n = 9
[2] = 1.5 mg once daily 10 days, normal-salt diet, n = 9
[3] = 2.5 mg once daily 10 days, low-salt diet, n = 9
[4] = 2.5 mg once daily 10 days, normal-salt diet, n = 6
[5] = 5.0 mg once daily 10 days, low-salt diet, n = 9
[6] = 0.5-5.0 mg once daily for 10 days

Structure (SMILES): CCC(=O)N[C@@H]1CCCc2c(-c3ccc4c(c3)CCC(=O)N4C)cncc21 [baxdrostat]
- Abdominal pain [1]: 0 (0.0) n (%)
- Anxiety [1]: 0 (0.0) n (%)
- Any AE [1]: 1 (11.1) n (%)
- Any TEAE [1]: 1 (11.1) n (%)
- Any TEAE leading to death [1]: 0 (0.0) n (%)
- Any TEAE leading to discontinuation [1]: 0 (0.0) n (%)
- Any drug-related treatment-emergent SAE [1]: 0 (0.0) n (%)
- Any treatment-emergent SAE [1]: 0 (0.0) n (%)
- Back pain [1]: 0 (0.0) n (%)
- Constipation [1]: 0 (0.0) n (%)
- Dizziness [1]: 0 (0.0) n (%)
- Dizziness postural [1]: 0 (0.0) n (%)
- Dry throat [1]: 0 (0.0) n (%)
- Dysphonia [1]: 0 (0.0) n (%)
- Eye irritation [1]: 0 (0.0) n (%)
- Headache [1]: 1 (11.1) n (%)
- Nausea [1]: 0 (0.0) n (%)
- Palpitations [1]: 0 (0.0) n (%)
- Presyncope [1]: 0 (0.0) n (%)
- Rhinitis [1]: 0 (0.0) n (%)
- Ventricular tachycardia [1]: 0 (0.0) n (%)
- Viral infection [1]: 0 (0.0) n (%)
- Abdominal pain [2]: 0 (0.0) n (%)
- Anxiety [2]: 0 (0.0) n (%)
- Any AE [2]: 1 (11.1) n (%)
- Any TEAE [2]: 1 (11.1) n (%)
- Any TEAE leading to death [2]: 0 (0.0) n (%)
- Any TEAE leading to discontinuation [2]: 0 (0.0) n (%)
- Any drug-related treatment-emergent SAE [2]: 0 (0.0) n (%)
- Any treatment-emergent SAE [2]: 0 (0.0) n (%)
- Back pain [2]: 0 (0.0) n (%)
- Constipation [2]: 1 (11.1) n (%)
- Dizziness [2]: 0 (0.0) n (%)
- Dizziness postural [2]: 0 (0.0) n (%)
- Dry throat [2]: 0 (0.0) n (%)
- Dysphonia [2]: 0 (0.0) n (%)
- Eye irritation [2]: 0 (0.0) n (%)
- Headache [2]: 0 (0.0) n (%)
- Nausea [2]: 0 (0.0) n (%)
- Palpitations [2]: 0 (0.0) n (%)
- Presyncope [2]: 0 (0.0) n (%)
- Rhinitis [2]: 0 (0.0) n (%)
- Ventricular tachycardia [2]: 0 (0.0) n (%)
- Viral infection [2]: 0 (0.0) n (%)
- Abdominal pain [3]: 0 (0.0) n (%)
- Anxiety [3]: 0 (0.0) n (%)
- Any AE [3]: 3 (33.3) n (%)
- Any TEAE [3]: 3 (33.3) n (%)
- Any TEAE leading to death [3]: 0 (0.0) n (%)
- Any TEAE leading to discontinuation [3]: 0 (0.0) n (%)
- Any drug-related treatment-emergent SAE [3]: 0 (0.0) n (%)
- Any treatment-emergent SAE [3]: 0 (0.0) n (%)
- Back pain [3]: 0 (0.0) n (%)
- Constipation [3]: 0 (0.0) n (%)
- Dizziness [3]: 0 (0.0) n (%)
- Dizziness postural [3]: 1 (11.1) n (%)
- Dry throat [3]: 0 (0.0) n (%)
- Dysphonia [3]: 0 (0.0) n (%)
- Eye irritation [3]: 0 (0.0) n (%)
- Headache [3]: 1 (11.1) n (%)
- Nausea [3]: 0 (0.0) n (%)
- Palpitations [3]: 0 (0.0) n (%)
- Presyncope [3]: 1 (11.1) n (%)
- Rhinitis [3]: 0 (0.0) n (%)
- Ventricular tachycardia [3]: 0 (0.0) n (%)
- Viral infection [3]: 1 (11.1) n (%)
- Abdominal pain [4]: 0 (0.0) n (%)
- Anxiety [4]: 1 (16.7) n (%)
- Any AE [4]: 3 (50.0) n (%)
- Any TEAE [4]: 3 (50.0) n (%)
- Any TEAE leading to death [4]: 0 (0.0) n (%)
- Any TEAE leading to discontinuation [4]: 0 (0.0) n (%)
- Any drug-related treatment-emergent SAE [4]: 0 (0.0) n (%)
- Any treatment-emergent SAE [4]: 0 (0.0) n (%)
- Back pain [4]: 0 (0.0) n (%)
- Constipation [4]: 0 (0.0) n (%)
- Dizziness [4]: 1 (16.7) n (%)
- Dizziness postural [4]: 2 (33.3) n (%)
- Dry throat [4]: 1 (16.7) n (%)
- Dysphonia [4]: 0 (0.0) n (%)
- Eye irritation [4]: 1 (16.7) n (%)
- Headache [4]: 1 (16.7) n (%)
- Nausea [4]: 0 (0.0) n (%)
- Palpitations [4]: 0 (0.0) n (%)
- Presyncope [4]: 0 (0.0) n (%)
- Rhinitis [4]: 1 (16.7) n (%)
- Ventricular tachycardia [4]: 0 (0.0) n (%)
- Viral infection [4]: 0 (0.0) n (%)
- Abdominal pain [5]: 1 (11.1) n (%)
- Anxiety [5]: 0 (0.0) n (%)
- Any AE [5]: 3 (33.3) n (%)
- Any TEAE [5]: 3 (33.3) n (%)
- Any TEAE leading to death [5]: 0 (0.0) n (%)
- Any TEAE leading to discontinuation [5]: 0 (0.0) n (%)
- Any drug-related treatment-emergent SAE [5]: 0 (0.0) n (%)
- Any treatment-emergent SAE [5]: 0 (0.0) n (%)
- Back pain [5]: 1 (11.1) n (%)
- Constipation [5]: 0 (0.0) n (%)
- Dizziness [5]: 1 (11.1) n (%)
- Dizziness postural [5]: 0 (0.0) n (%)
- Dry throat [5]: 0 (0.0) n (%)
- Dysphonia [5]: 1 (11.1) n (%)
- Eye irritation [5]: 0 (0.0) n (%)
- Headache [5]: 1 (11.1) n (%)
- Nausea [5]: 0 (0.0) n (%)
- Palpitations [5]: 0 (0.0) n (%)
- Presyncope [5]: 0 (0.0) n (%)
- Rhinitis [5]: 0 (0.0) n (%)
- Ventricular tachycardia [5]: 0 (0.0) n (%)
- Viral infection [5]: 0 (0.0) n (%)
- QT prolongation (electrocardiograms) [6]: no QT prolongation
- changes in seated heart rate or BP [6]: no clinically significant changes
- subjects with a TEAE considered related to the study drug (all baxdrostat groups pooled): 6 (14.3%)
- severity of TEAEs (all subjects receiving baxdrostat): mild
